Data: PMC8885877, “STAT3 inhibition suppresses adaptive survival of ALK-rearranged lung cancer cells through transcriptional modulation of apoptosis” (NPJ Precision Oncology, 2022)

Target: STAT3 (Homo sapiens, UniProt P40763)
Test: Alpha-based competitive binding assay with biotinylated recombinant STAT3 and FITC-labeled phospho-Tyr peptide
Text: Alpha-based competitive binding assay with biotinylated recombinant STAT3 and FITC-labeled phospho-Tyr peptide on STAT3 | inhibited the binding of phospho-Tyr peptide to the SH2 domain of STAT3 in a concentration-dependent manner with IC50 values

Sequence of STAT3 (P40763 2-770): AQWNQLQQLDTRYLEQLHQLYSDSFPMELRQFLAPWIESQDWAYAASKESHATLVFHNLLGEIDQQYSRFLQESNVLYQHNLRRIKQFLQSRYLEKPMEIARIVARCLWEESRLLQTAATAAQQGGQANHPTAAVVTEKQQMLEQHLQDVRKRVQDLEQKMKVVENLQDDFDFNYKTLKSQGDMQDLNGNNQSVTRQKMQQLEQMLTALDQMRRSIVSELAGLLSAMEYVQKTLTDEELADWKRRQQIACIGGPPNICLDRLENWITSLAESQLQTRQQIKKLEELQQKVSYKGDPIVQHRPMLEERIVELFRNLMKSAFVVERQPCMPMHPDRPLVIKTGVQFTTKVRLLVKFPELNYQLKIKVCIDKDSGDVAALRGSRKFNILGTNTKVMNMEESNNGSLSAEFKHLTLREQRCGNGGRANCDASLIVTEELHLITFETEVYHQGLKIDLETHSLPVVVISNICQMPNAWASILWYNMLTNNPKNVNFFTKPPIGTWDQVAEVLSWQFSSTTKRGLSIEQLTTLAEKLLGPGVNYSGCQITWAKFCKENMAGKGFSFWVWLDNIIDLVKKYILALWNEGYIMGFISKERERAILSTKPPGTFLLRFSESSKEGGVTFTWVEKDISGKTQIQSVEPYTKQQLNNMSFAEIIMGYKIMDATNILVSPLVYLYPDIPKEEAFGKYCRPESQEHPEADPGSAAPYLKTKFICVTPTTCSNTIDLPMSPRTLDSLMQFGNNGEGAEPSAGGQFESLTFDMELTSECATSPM

IC50: 2.5 µM
Substance: YHO-1701
